Measurements taken from patent US8877769B2, “Heteroaryl-substituted urea modulators of fatty acid amide hydrolase” (Janssen Pharmaceutica NV, priority 2008, dated 2014).

Key:
FAAH = biological target: T1, FAAH (Homo sapiens, UniProt O00519); test: Assay Method 1: FAAH assay, 3H-anandamide hydrolysis in cell homogenate
T1 sequence (O00519 1-579): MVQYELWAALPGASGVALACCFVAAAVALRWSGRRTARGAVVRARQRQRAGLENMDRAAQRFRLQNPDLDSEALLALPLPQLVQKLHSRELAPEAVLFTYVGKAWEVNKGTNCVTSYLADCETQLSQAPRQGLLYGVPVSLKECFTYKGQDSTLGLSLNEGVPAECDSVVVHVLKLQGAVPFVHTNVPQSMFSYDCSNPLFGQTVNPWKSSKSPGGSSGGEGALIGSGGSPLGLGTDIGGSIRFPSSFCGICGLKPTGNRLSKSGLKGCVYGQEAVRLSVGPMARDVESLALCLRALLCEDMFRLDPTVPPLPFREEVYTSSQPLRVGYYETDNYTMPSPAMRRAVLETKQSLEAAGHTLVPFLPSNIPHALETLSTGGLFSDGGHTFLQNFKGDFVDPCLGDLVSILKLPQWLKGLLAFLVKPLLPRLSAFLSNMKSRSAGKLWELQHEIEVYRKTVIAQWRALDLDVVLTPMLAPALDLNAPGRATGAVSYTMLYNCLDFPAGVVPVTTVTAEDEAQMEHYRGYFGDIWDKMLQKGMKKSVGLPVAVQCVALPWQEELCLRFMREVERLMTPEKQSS

Rat FAAH = biological target: T2, Rat FAAH (Rattus norvegicus, UniProt P97612); test: Assay Method 2: FAAH assay, 3H-anandamide hydrolysis in cell homogenate; assay type: biochemical; details: average of results obtained, > value = solubility limit or highest concentration tested
T2 construct: expressed in transfected cells
T2 sequence (P97612 1-579): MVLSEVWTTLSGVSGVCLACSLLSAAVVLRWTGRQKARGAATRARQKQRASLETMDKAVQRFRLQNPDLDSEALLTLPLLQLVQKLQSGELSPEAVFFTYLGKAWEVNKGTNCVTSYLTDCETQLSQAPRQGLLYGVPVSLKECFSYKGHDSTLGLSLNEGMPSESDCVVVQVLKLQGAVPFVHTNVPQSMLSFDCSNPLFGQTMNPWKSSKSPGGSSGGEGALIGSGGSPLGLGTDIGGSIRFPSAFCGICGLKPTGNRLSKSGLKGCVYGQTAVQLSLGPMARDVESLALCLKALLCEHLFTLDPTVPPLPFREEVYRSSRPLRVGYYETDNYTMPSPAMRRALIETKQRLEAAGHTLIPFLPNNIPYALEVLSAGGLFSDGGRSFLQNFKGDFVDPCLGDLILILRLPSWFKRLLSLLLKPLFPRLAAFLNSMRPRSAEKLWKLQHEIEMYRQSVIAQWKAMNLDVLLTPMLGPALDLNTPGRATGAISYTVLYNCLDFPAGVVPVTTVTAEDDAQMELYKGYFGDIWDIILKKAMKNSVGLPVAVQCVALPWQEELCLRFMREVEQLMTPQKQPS
Description: A. Transfection of Cells with Rat FAAH
The assay mixture consisted of 50 μL of the cell homogenate, 10 μL of the test compound, and 40 μL of anandamide [1-^3H-ethanolamine] (^3H-AEA, Perkin-Elmer, 10.3 Ci/mmol), which was added last, for a final tracer concentration of 80 nM. The reaction mixture was incubated at rt for 1 h. During the incubation, 96-well Multiscreen filter plates (catalog number MAFCNOB50; Millipore, Bedford, Mass., USA) were loaded with 25 μL of activated charcoal (Multiscreen column loader, catalog number MACL09625, Millipore) and washed once with 100 μL of MeOH. […] After the 1 h incubation, 60 μL of the reaction mixture were transferred to the charcoal plates, which were then assembled on top of the DYNEX plates using Centrifuge Alignment Frames (catalog number MACF09604, Millipore). The unbound labeled ethanolamine was centrifuged through to the bottom plate (5 min at 2000 rpm), which was preloaded with the scintillant, as described above. The plates were sealed and left at rt for 1 h before counting on a Hewlett Packard TopCount.

O=C(Nc1ccnc2[nH]ccc12)N1CCN(Cc2cccc(Oc3ccc(Cl)cc3)c2)CC1 [Example 61, 4-[3-(4-Chloro-phenoxy)-benzyl]-piperazine-1-carboxylic acid (1H-pyrrolo[2,3-b]pyridin-4-yl)-amide]
IC50 (FAAH): 1000 nM | IC50 (Rat FAAH): 6000 nM

O=C(Nc1cnc2[nH]ccc2c1)N1CCN(Cc2ccc3c(c2)OC(F)(F)O3)CC1 [Example 44, 4-(2,2-Difluoro-benzo[1,3]dioxol-5-ylmethyl)-piperazine-1-carboxylic acid (1H-pyrrolo[2,3-b]pyridin-5-yl)-amide]
IC50 (FAAH): 16 nM | IC50 (Rat FAAH): 9 nM

O=C(Nc1nc2ccccc2o1)N1CCN(Cc2ccc(OC(F)(F)F)c(Cl)c2)CC1 [Example 67, 4-(3-Chloro-4-trifluoromethoxy-benzyl)-piperazine-1-carboxylic acid benzooxazol-2-ylamide]
IC50 (FAAH): > 10000 nM | IC50 (Rat FAAH): > 10000 nM

O=C(Nc1cnc2[nH]ccc2c1)N1CCN(Cc2cccc(Oc3ccc(C(F)(F)F)nn3)c2)CC1 [Example 80, 4-[3-(6-Trifluoromethyl-pyridazin-3-yloxy)-benzyl]-piperazine-1-carboxylic acid (1H-pyrrolo[2,3-b]pyridin-5-yl)-amide]
IC50 (FAAH): 3 nM | IC50 (Rat FAAH): 180 nM

O=C(Nc1cn2ccccc2n1)N1CCN(Cc2cccc(Oc3ccc(Cl)cc3)c2)CC1 [Example 55, 4-[3-(4-Chloro-phenoxy)-benzyl]-piperazine-1-carboxylic acid imidazo[1,2-a]pyridin-2-ylamide]
IC50 (FAAH): > 10000 nM | IC50 (Rat FAAH): > 10000 nM

O=C(Nc1noc2ncccc12)N1CCN(Cc2ccc3c(c2)OC(F)(F)O3)CC1 [Example 5, 4-(2,2-Difluoro-benzo[1,3]dioxol-5-ylmethyl)-piperazine-1-carboxylic acid isoxazolo[5,4-b]pyridin-3-ylamide]
IC50 (FAAH): 1600 nM | IC50 (Rat FAAH): 8000 nM

O=C(Nc1noc2ncccc12)N1CCN(Cc2cc3ccccc3s2)CC1 [Example 28, 4-Benzo[b]thiophen-2-ylmethyl-piperazine-1-carboxylic acid isoxazolo[5,4-b]pyridin-3-ylamide]
IC50 (FAAH): 6000 nM | IC50 (Rat FAAH): > 10000 nM

O=C(Nc1noc2ncccc12)N1CCN(Cc2cccc(Oc3ccc(F)c(C(F)(F)F)c3)c2)CC1 [Example 14, 4-[3-(4-Fluoro-3-trifluoromethyl-phenoxy)-benzyl]-piperazine-1-carboxylic acid isoxazolo[5,4-b]pyridin-3-ylamide]
IC50 (FAAH): 470 nM | IC50 (Rat FAAH): 4000 nM

O=C(Nc1noc2ncccc12)N1CCN(Cc2cccc(Oc3cccc(OC(F)(F)F)c3)c2)CC1 [Example 36, 4-[3-(3-Trifluoromethoxy-phenoxy)-benzyl]-piperazine-1-carboxylic acid isoxazolo[5,4-b]pyridin-3-ylamide]
IC50 (FAAH): 1400 nM | IC50 (Rat FAAH): 6000 nM

O=C(Nc1noc2ncccc12)N1CCN(Cc2cccc(Oc3cccc(Br)c3)c2)CC1 [Example 35, 4-[3-(3-Bromo-phenoxy)-benzyl]-piperazine-1-carboxylic acid isoxazolo[5,4-b]pyridin-3-ylamide]
IC50 (FAAH): 150 nM | IC50 (Rat FAAH): 300 nM

O=C(Nc1ccc2nccn2c1)N1CCN(Cc2ccc3c(c2)OC(F)(F)O3)CC1 [Example 51, 4-(2,2-Difluoro-benzo[1,3]dioxol-5-ylmethyl)-piperazine-1-carboxylic acid imidazo[1,2-a]pyridin-6-ylamide]
IC50 (FAAH): > 10000 nM | IC50 (Rat FAAH): > 10000 nM

O=C(Nc1noc2ncccc12)N1CCN(Cc2cccc(Oc3ccc(F)c(F)c3)c2)CC1 [Example 26, 4-[3-(3,4-Difluoro-phenoxy)-benzyl]-piperazine-1-carboxylic acid isoxazolo[5,4-b]pyridin-3-ylamide]
IC50 (FAAH): 3200 nM | IC50 (Rat FAAH): > 10000 nM

O=C(Nc1cccn2ccnc12)N1CCN(Cc2ccc3c(c2)OC(F)(F)O3)CC1 [Example 54, 4-(2,2-Difluoro-benzo[1,3]dioxol-5-ylmethyl)-piperazine-1-carboxylic acid imidazo[1,2-a]pyridin-8-ylamide]
IC50 (FAAH): 6000 nM | IC50 (Rat FAAH): 350 nM

O=C(Nc1noc2ncccc12)N1CCN(Cc2cccc(Oc3ccc4ncccc4c3)c2)CC1 [Example 18, 4-[3-(Quinolin-6-yloxy)-benzyl]-piperazine-1-carboxylic acid isoxazolo[5,4-b]pyridin-3-ylamide]
IC50 (FAAH): 6000 nM | IC50 (Rat FAAH): > 10000 nM

O=C(Nc1noc2ncccc12)N1CCN(Cc2cc3ccccc3o2)CC1 [Example 31, 4-Benzofuran-2-ylmethyl-piperazine-1-carboxylic acid isoxazolo[5,4-b]pyridin-3-ylamide]
IC50 (FAAH): 3000 nM | IC50 (Rat FAAH): > 10000 nM

O=C(Nc1noc2ncccc12)N1CCN(Cc2cccc(Oc3cccc(C(F)(F)F)c3)c2)CC1 [Example 15, 4-[3-(3-Trifluoromethyl-phenoxy)-benzyl]-piperazine-1-carboxylic acid isoxazolo[5,4-b]pyridin-3-ylamide]
IC50 (FAAH): 300 nM | IC50 (Rat FAAH): 860 nM

CC(C)n1ncc2cc(NC(=O)N3CCN(Cc4cccc(Oc5ccc(Cl)cc5)c4)CC3)cnc21 [Example 62, 4-[3-(4-Chloro-phenoxy)-benzyl]-piperazine-1-carboxylic acid (1-isopropyl-1H-pyrazolo[3,4-b]pyridin-5-yl)-amide]
IC50 (FAAH): 220 nM | IC50 (Rat FAAH): 4000 nM

O=C(Nc1noc2ncccc12)N1CCN(Cc2cccc(Oc3ccc(OCC(F)(F)F)cc3)c2)CC1 [Example 33, 4-{3-[4-(2,2,2-Trifluoro-ethoxy)-phenoxy]-benzyl}-piperazine-1-carboxylic acid isoxazolo[5,4-b]pyridin-3-ylamide]
IC50 (FAAH): 200 nM | IC50 (Rat FAAH): 200 nM

N#Cc1ccnc(Oc2cccc(CN3CCN(C(=O)Nc4cnc5[nH]ccc5c4)CC3)c2)c1 [Example 78, 4-[3-(4-Cyano-pyridin-2-yloxy)-benzyl]-piperazine-1-carboxylic acid (1H-pyrrolo[2,3-b]pyridin-5-yl)-amide]
IC50 (FAAH): 84 nM | IC50 (Rat FAAH): 5000 nM

O=C(Nc1nocc1Cl)N1CCN(Cc2ccc3c(c2)OC(F)(F)O3)CC1 [Example 86, 4-(2,2-Difluoro-benzo[1,3]dioxol-5-ylmethyl)-piperazine-1-carboxylic acid (4-chloro-isoxazol-3-yl)-amide]
IC50 (FAAH): 73 nM | IC50 (Rat FAAH): 280 nM

N#Cc1cccc(Oc2cccc(CN3CCN(C(=O)Nc4noc5ncccc45)CC3)c2)c1 [Example 16, 4-[3-(3-Cyano-phenoxy)-benzyl]-piperazine-1-carboxylic acid isoxazolo[5,4-b]pyridin-3-ylamide]
IC50 (FAAH): 2000 nM | IC50 (Rat FAAH): 6000 nM

O=C(Nc1cccn2ccnc12)N1CCN(Cc2ccc(OC(F)(F)F)c(Cl)c2)CC1 [Example 53, 4-(3-Chloro-4-trifluoromethoxy-benzyl)-piperazine-1-carboxylic acid imidazo[1,2-a]pyridin-8-ylamide]
IC50 (FAAH): 1300 nM | IC50 (Rat FAAH): 120 nM

O=C(Nc1noc2ncccc12)N1CCN(Cc2cccc(OCc3ccccc3)c2)CC1 [Example 21, 4-(3-Benzyloxy-benzyl)-piperazine-1-carboxylic acid isoxazolo[5,4-b]pyridin-3-ylamide]
IC50 (FAAH): 2000 nM | IC50 (Rat FAAH): > 10000 nM

O=C(Nc1cccc2nccn12)N1CCN(Cc2ccc3c(c2)OC(F)(F)O3)CC1 [Example 71, 4-(2,2-Difluoro-benzo[1,3]dioxol-5-ylmethyl)-piperazine-1-carboxylic acid imidazo[1,2-a]pyridin-5-ylamide]
IC50 (FAAH): 140 nM | IC50 (Rat FAAH): 140 nM

O=C(Nc1noc2cccnc12)N1CCN(Cc2ccc(Cl)c(Cl)c2)CC1 [Example 43, 4-(3,4-Dichloro-benzyl)-piperazine-1-carboxylic acid isoxazolo[4,5-b]pyridin-3-ylamide]
IC50 (FAAH): 250 nM | IC50 (Rat FAAH): 112 nM
